The values below come from ChEMBL document CHEMBL5390316, “Enniatin A Analogues as Novel Hsp90 Inhibitors that Modulate Triple-Negative Breast Cancer” (ACS Med Chem Lett, 2023).

pIC50: −log10 of the molar value. Active and inactive are the calls of the source. The rule behind the calls is not given here.

Assay [1] has as its system 4T1. Nature of the assay: Inhibition of HSP90 in mouse 4T1 cells assessed as reduction in CDK4 level at 7.5 uM incubated for 24 hrs by Western blot analysis. It counts as cell-based.
The target of assay [2] is Heat shock protein HSP90 (Homo sapiens) (UniProt P07900+P08238). Briefly: Inhibition of HSP90 in human Hs-578T cells assessed as degradation of CDK4 at 5 uM incubated for 24 hrs by Western blot analysis. The format is cell-based. (Immunoblotting shows a protein as a band on a membrane.)
Assay [3] relates to E0771. Nature of the assay: In vivo induction of heat shock response in mouse E0771 cells implanted in C57BL/6 mouse assessed as increased Hsp70 level at 10 mg/kg, ip administered every 48 hrs for 3 weeks by Western blot analysis. The format is functional, organism-based.
The test system of assay [4] is EO771. Nature of the assay: Induction of heat shock response in mouse EO771 cells assessed as change in Hsp70 level at 7.5 uM incubated for 24 hrs by Western blot analysis. The format is functional, cell-based.
Assay [5] relates to E0771. Nature of the assay: In vivo induction of heat shock response in mouse E0771 cells implanted in C57BL/6 mouse assessed as increased Hsp40 level at 10 mg/kg, ip administered every 48 hrs for 3 weeks by Western blot analysis. It counts as functional, organism-based.
The subject of assay [6] is Hs-578T. Briefly: Induction of heat shock response in human Hs-578T cells assessed as change in Hsp40 level at 5 uM incubated for 24 hrs by Western blot analysis. It counts as functional, cell-based.
The test system of assay [7] is E0771. Nature of the assay: In vivo inhibition of HSP90 in mouse E0771 cells implanted in C57BL/6 mouse assessed as change in CDK4 at 10 mg/kg, ip administered every 48 hrs for 3 weeks by Western blot analysis. It counts as functional, organism-based.
Assay [8] has as its system E0771. Briefly: In vivo inhibition of HSP90 in mouse E0771 cells implanted in C57BL/6 mouse assessed as change in ILK at 10 mg/kg, ip administered every 48 hrs for 3 weeks by Western blot analysis. It counts as functional, organism-based.
Assay [9] relates to EO771. Briefly: Antiproliferative activity against mouse E0771 cells implanted in C57BL/6 mouse assessed as inhibition of tumor volume at 10 mg/kg, ip administered every 48 hrs for 3 weeks. The format is functional, organism-based.
Assay [10] has as its system 4T1. Nature of the assay: Induction of heat shock response in mouse 4T1 cells assessed as change in Hsp70 level at 7.5 uM incubated for 24 hrs by Western blot analysis. The format is functional, cell-based.
Assay [11] relates to 4T1. Briefly: Inhibition of HSP90 in mouse 4T1 cells assessed as reduction in ILK level at 7.5 uM incubated for 24 hrs by Western blot analysis. The format is cell-based.
The test system of assay [12] is EO771. Briefly: Inhibition of HSP90 in mouse EO771 cells assessed as change in CDK4 level at 7.5 uM incubated for 24 hrs by Western blot analysis. It counts as cell-based.
The test system of assay [13] is EO771. Briefly: Inhibition of HSP90 in mouse EO771 cells assessed as change in ILK level at 7.5 uM incubated for 24 hrs by Western blot analysis. The format is cell-based.
Assay [14] deals with E0771. Nature of the assay: In vivo inhibition of HSP90 in mouse E0771 cells implanted in C57BL/6 mouse assessed as change in p-Akt/Akt ratio at 10 mg/kg, ip administered every 48 hrs for 3 weeks by Western blot analysis. It counts as functional, organism-based.
Assay [15] concerns Hs-578T. Nature of the assay: Induction of heat shock response in human Hs-578T cells assessed as change in Hsp70 level at 5 uM incubated for 24 hrs by Western blot analysis. It counts as functional, cell-based.
Assay [16] deals with E0771. Nature of the assay: In vivo inhibition of HSP90 in mouse E0771 cells implanted in C57BL/6 mouse at 10 mg/kg, ip administered every 48 hrs for 3 weeks by Western blot analysis. It counts as functional, organism-based.
For assay [17], the system named is Hs-578T. Nature of the assay: Antiproliferative activity against human Hs-578T cells assessed as reduction in cell viability incubated for 48 hrs by MTT assay. It counts as functional, cell-based. On the technique in general: Tetrazolium dyes change colour on reduction, which living cells bring about.
The subject of assay [18] is Hs-578T. Nature of the assay: Induction of heat shock response in human Hs-578T cells assessed as reduction in Hsp40 level at 1 uM incubated for 24 hrs by Western blot analysis. It counts as functional, cell-based.
In assay [19] the test system is Hs-578T. Nature of the assay: Induction of heat shock response in human Hs-578T cells assessed as reduction in Hsp70 level at 1 uM incubated for 24 hrs by Western blot analysis. It counts as functional, cell-based.

As a reminder, the pIC50 is the negative decadic logarithm of the IC50, by convention in mol/L. In the case of `CC[C@H](C)[C@H]1C(=O)O[C@H](C(C)C)C(=O)N(C)[C@@H]([C@@H](C)CC)C(=O)O[C@H](C(C)C)C(=O)N(C)[C@@H]([C@@H](C)CC)C(=O)O[C@H](Cc2ccccc2)C(=O)N1C`, the inhibition result (in the assay on 4T1 [1]; in [2]; in the assay on E0771 [7]; with E0771 [8]; in the assay on 4T1 [11]; in the assay with E0771 [14]) was “Active” throughout. In addition, the result in the assay on E0771 [3], with E0771 [5] and with EO771 [9] was Active. Also, the outcome in the assay on EO771 [4], in the assay on Hs-578T [6], with 4T1 [10] and in the assay on Hs-578T [15] was inactive. Besides, the inhibition result in the assay with EO771 [12], in the assay with EO771 [13] and in the assay with E0771 [16] was “inactive” throughout. In addition, in the assay with Hs-578T [17], the pIC50 is 5.36.

Consider `CC[C@H](C)[C@H]1C(=O)O[C@H](C(C)C)C(=O)N(C)[C@@H]([C@@H](C)CC)C(=O)O[C@H](C(C)C)C(=O)N(C)[C@@H]([C@@H](C)CC)C(=O)O[C@H](C(C)C)C(=O)N1C`, for which the inhibition entry (in the assay with 4T1 [1]; in [2]; with E0771 [7]; in the assay on E0771 [8]; in the assay on 4T1 [11]; in the assay with E0771 [14]) was “Active” in each case. Further, the outcome in the assay with EO771 [4], with Hs-578T [6], in the assay with 4T1 [10] and with Hs-578T [15] was inactive. In the assay on EO771 [9], the result was Active. In addition, the inhibition result in the assay with EO771 [12], with EO771 [13] and in the assay on E0771 [16] was “inactive” in each case. In the assay with Hs-578T [17], the negative logarithm of the IC50 (pIC50) was 5.13.

`CC[C@H](C)[C@H]1C(=O)O[C@H](C(C)C)C(=O)N(C)[C@@H](C)C(=O)O[C@H](C(C)C)C(=O)N(C)[C@@H]([C@@H](C)CC)C(=O)O[C@H](C(C)C)C(=O)N1C`: the pIC50 with Hs-578T [17] is 4.79.

With `CC[C@H](C)[C@H]1C(=O)O[C@H](C(C)C)C(=O)N(C)[C@@H](Cc2ccccc2)C(=O)O[C@H](C(C)C)C(=O)N(C)[C@@H]([C@@H](C)CC)C(=O)O[C@H](C(C)C)C(=O)N1C`, the inhibition entry in assay [2] was “Active”. Further, the outcome with Hs-578T [6] and in the assay with Hs-578T [15] was inactive. In addition, the pIC50 in the assay on Hs-578T [17] was 5.10.

Turning to `CC[C@H](C)[C@H]1C(=O)O[C@H](C(C)C)C(=O)N(C)[C@@H]([C@@H](C)CC)C(=O)O[C@H](C(C)C)C(=O)N(C)[C@@H]([C@@H](C)CC)C(=O)O[C@H](Cc2ccc3ccccc3c2)C(=O)N1C`, the pIC50 in the assay with Hs-578T [17] was 5.10.

As for `CC[C@H](C)[C@H]1C(=O)O[C@H](C(C)C)C(=O)N(C)[C@@H]([C@@H](C)CC)C(=O)O[C@H](C(C)C)C(=O)N(C)CC(=O)O[C@H](C(C)C)C(=O)N1C`, the negative logarithm of the IC50 (pIC50) with Hs-578T [17] was 4.78.

As for `C=CCNC1=C2C[C@@H](C)C[C@H](OC)[C@H](O)[C@@H](C)/C=C(\C)[C@H](OC(N)=O)[C@@H](OC)/C=C\C=C(/C)C(=O)NC(=CC1=O)C2=O`, the outcome in the assay on Hs-578T [18] and in the assay on Hs-578T [19] was Active.

In the case of `CC[C@H](C)[C@H]1C(=O)O[C@H](C(C)C)C(=O)N(C)[C@@H]([C@@H](C)CC)C(=O)O[C@H](C(C)C)C(=O)N(C)[C@@H]([C@@H](C)CC)C(=O)O[C@H](C)C(=O)N1C`, the pIC50 in the assay on Hs-578T [17] is 4.89.

Take `CC[C@H](C)[C@H]1C(=O)O[C@H](C(C)C)C(=O)N(C)[C@@H]([C@@H](C)CC)C(=O)O[C@H](C(C)C)C(=O)N(C)[C@@H]([C@@H](C)CC)C(=O)O[C@H](CCc2ccccc2)C(=O)N1C`: the pIC50 in the assay with Hs-578T [17] was 5.09.

Consider `CC[C@H](C)[C@H]1C(=O)O[C@H](C(C)C)C(=O)N(C)[C@@H]([C@@H](C)CC)C(=O)O[C@H](C(C)C)C(=O)N(C)[C@@H]([C@@H](C)CC)C(=O)OCC(=O)N1C`, for which the negative logarithm of the IC50 (pIC50) in the assay on Hs-578T [17] was 4.80.

As for `CC[C@H](C)[C@H]1C(=O)O[C@H](C(C)C)C(=O)N(C)[C@@H]([C@@H](C)CC)C(=O)O[C@H](C(C)C)C(=O)N(C)[C@@H]([C@@H](C)CC)C(=O)O[C@H](Cc2ccc(C)cc2)C(=O)N1C`, the pIC50 with Hs-578T [17] is 5.08.
